Experimental findings from patent US10174380B2, “Methods for predicting multiple myeloma treatment response” (INSERM (INSTITUT NATIONAL DE LA SANTE ET DE LA RECHERCHE …, priority 2012, dated 2019) are described below.

“And” between values parts separate entries of the source, which are not always exact repeats. Identical values can stand only once. Like-named read-outs stand apart in the source and are kept apart here.

What all share (format): cell-based, human
Series [1] relates to 5 HMCLs with the highest HA Score. The series is described as follows: Growth assay for myeloma cells (Cell Titer Glo, intracellular ATP), HMCLs with high HA Score. The conditions noted are these: 4 days culture, read-out: median IC50. Here is the method: (§1) Data are mean values plus or minus standard deviation (SD) of 5 experiments determined on sextuplet culture wells.
(§2) HMCLs were cultured for 4 days in 96-well flat-bottom microtiter plates in RPMI 1640 medium, 10% FCS, 2 ng/ml IL-6 culture medium (control), with graded Panobinostat (A), VPA […] or SAHA (C) concentrations. Data are mean values plus or minus standard deviation (SD) of 5 experiments determined on sextuplet culture wells.
(§3) Cell growth was evaluated by quantifying intracellular ATP amount with a Cell Titer Glo Luminescent Assay (Promega, Madison, Wis.) with a Centro LB 960 luminometer (Berthold Technologies, Bad Wildbad, Germany).
(§4) The inventors sought to determine whether HA Score could predict for the sensitivity of 10 HMCLs to HDAC inhibitor.
(§5) The inventors sought to determine whether HA Score could predict for the sensitivity of myeloma cells to clinical grade HDAC inhibitors {Neri, 2012 #3317}.
(In general: Cellular ATP, detected with luciferase, serves as a proxy for viable cell number.)

Series [2] has as its system 5 HMCLs with low HA Score. The experiment in a line: Growth assay for myeloma cells (Cell Titer Glo, intracellular ATP), HMCLs with low HA Score. The following applies: 4 days culture, read-out: median IC50. As to the method:
as §1, §2, §3, §4, §5

Series [3] has as its system primary MMCs of patients with high HA Score. The experiment in a line: Mononuclear cell culture, CD138+ viable plasma cell count, patients with high HA Score. The following applies: day 4; for Myeloma cell number/culture well: individual patients with high HA Score; for Myeloma cell number/culture well, Mean: mean of 8 patients with high HA Score. As to the method: (§6) At day 4 of culture, the cell count and the viability were determined and the percentage of CD138^+ viable plasma cells was determined by flow cytometry. Black color represents patients with high HA Score (N=8) and white represents patients with low HA Score values (N=5).
(§7) In each culture group, viability and cell counts were assayed and MMCs were stained with an anti-CD138-PE mAb (Immunotech, Marseille, France) as previously described (35).
(§8) The characteristics of patients with MM included in this study are described in Table 3.

Series [4] concerns primary MMCs of patients with low HA Score. The experiment in a line: Mononuclear cell culture, CD138+ viable plasma cell count, patients with low HA Score. The conditions noted are these: day 4; for Myeloma cell number/culture well: individual patients with low HA Score; for Myeloma cell number/culture well, Mean: mean of 5 patients with low HA Score. Here is the method:
as §6, §7, §8

For another series, the system named is Five HMCLs. The experiment in a line: Cell viability of the five TSA treated HMCLs (summary statement). The conditions noted are these: 0.33 μM TSA for 24 h. Here is the method:
(§9) The human MM cell lines XG-5, XG-6, XG-7, XG-20 and LP1 were grown in RPMI 1640 supplemented with 10% fetal bovine serum and 2 ng/mL recombinant IL-6. […] Control cells were cultured in the same conditions without TSA.
The prognostic information of HDACi regulated genes was gathered within an histone acetylation score (HA Score), which was the sum of the beta coefficients of the Cox model weighted by ±1 according to the patient MMC signal above or below the probe set maxstat value as described (34).

In another series the test system is XG-6. The experiment in a line: Cell viability by trypan blue exclusion. The conditions noted are these: 0.33 μM TSA, 24 h (Day 1), mean ± SD, 3 experiments. As to the method: as §9
A further series relates to XG-5. The experiment in a line: Cell viability by trypan blue exclusion. The conditions noted are these: 0.33 μM TSA, 24 h (Day 1), mean ± SD, 3 experiments. As to the method:
as §9

The next series has as its system XG-20. The series is described as follows: Cell viability by trypan blue exclusion. The conditions noted are these: 0.33 μM TSA, 24 h (Day 1), mean ± SD, 3 experiments. Here is the method: as §9
A further series concerns XG-7. The experiment in a line: Cell viability by trypan blue exclusion. The conditions noted are these: 0.33 μM TSA, 24 h (Day 1), mean ± SD, 3 experiments. As to the method:
as §9

The next series relates to LP1. The experiment in a line: Cell viability by trypan blue exclusion. The following applies: 0.33 μM TSA, 24 h (Day 1), mean ± SD, 3 experiments. As to the method:
as §9

The mark [5] stands for this setting: Homo sapiens, 96 h, IL-6 2 ng/ml.

In the case of `Cc1[nH]c2ccccc2c1CCNCc1ccc(/C=C/C(=O)NO)cc1` [Panobinostat, panobinostat], the IC50 (usually the concentration that gives 50% inhibition) in series [1] (setting [5]) stood at 1.16 nM; in series [2] (setting [5]) it was 3.16 nM.

As for `CC(/C=C/C(=O)NO)=C\[C@@H](C)C(=O)c1ccc(N(C)C)cc1` [TSA, trichostatin A], the “Myeloma cell number/culture well” value in series [3] (5.1 nM TSA) was 43320 and 115520 and 72200 and 83752 and 19950 and 37544 and 48249 and 78844; in [3] (10.3 nM TSA) it was 31086 and 45216 and 50868 and 25434 and 12170 and 33912 and 38249 and 41860; in series [3] (20.7 nM TSA), 22880 and 20592 (2×) and 38896 and 7650 and 18304 and 29064 and 32752; in [3] (41.3 nM TSA), 7250 (2×) and 29000 and 18850 and 11600 and 1736 and 5238 and 29790; in series [4] (5.1 nM TSA), 72200 and 60648 and 14750 and 306768 and 19100; in [4] (10.3 nM TSA) it was 64998 and 62172 and 18486 and 254478 and 19458. Also, the “Myeloma cell number/culture well” value in series [4] (20.7 nM TSA) was 54912 and 41184 and 14328 and 243978 and 18168; in series [4] (41.3 nM TSA), 33350 and 26100 and 12765 and 235040 and 18876. For the same compound, the “Myeloma cell number/culture well, Mean” value in [3] (5.1 nM TSA) is given as 62422; in series [3] (10.3 nM TSA) it was 34849; in series [3] (20.7 nM TSA), 23841; in series [3] (41.3 nM TSA) it was 13839; in series [4] (5.1 nM TSA), 94693; in series [4] (10.3 nM TSA), 83918. Moreover, the “Myeloma cell number/culture well, Mean” value in [4] (20.7 nM TSA) is 74514; in [4] (41.3 nM TSA), 65226. The IC50 was determined as 11 nM in [1] (IL-6 2 ng/ml) and 52.3 nM in [2] (IL-6 2 ng/ml). Also, in the series on Five HMCLs, the “effect on myeloma cell viability” value is listed as “did not affect myeloma cell viability”. Moreover, the “Cell viability (%)” value in the series with XG-6 is reported as 100 ± 1%; with XG-5, 70 ± 3%; in the series on XG-20, 100 ± 1%; with XG-7 it was 100 ± 0%; in the series on LP1 it was 100 ± 0%.

As to `CCCC(CCC)C(=O)O` [VPA, valproic acid], the IC50 in [1] (Homo sapiens, 96 h) was 280 nM; in series [2] (Homo sapiens, 96 h) it was 430 nM.
